In patent publication US20050124591A1, “Use of vitamin Ds to treat kidney disease” (priority 2003, published 2005):

Key:
[1] = test system: CKD Stage 3 and 4 patients; experiment: dipstick proteinuria in three randomized, double-blind, placebo-controlled studies in CKD Stage 3 and 4 patients with SHPT; assay type: in vivo, human
Method: Paricalcitol capsule, a synthetic 3rd generation vitamin D analog, and selective vitamin receptor activator (SVDRA) was evaluated in three randomized, double-blind, placebo-controlled, multicenter studies in CKD Stage 3 and 4 patients with SHPT. Two studies dosed three times a week(TIW), no more often than every other day, and 1 study was conducted with once a day dosing regimen (QD). Data from these three studies were combined and analyzed for the following safety parameters: • Calcium and phosphorus metabolism, kidney function parameters and adverse event profile • Changes in dipstick proteinuria Method: • Randomized, double-blind, placebo controlled, multicenter studies with a Pre-treatment/Washout Phase of 1-4 weeks and a Treatment Phase of 24 weeks • Patients were randomized 1:1 to paricalcitol or placebo • Major entry criteria: • Age≧18 years • CKD patients with eGFR (MDRD formula) 15-60 mL/min/1.73 m^2 • Average of the last 2 iPTH values≧150 pg/mL, all values≧120 pg/mL (iPTH measured by Nichols first generation intact PTH assay) • 2 consecutive serum calcium values between 8.0-10.0 mg/dL, and 2 consecutive serum phosphorus values≦5.2 mg/dL • Spot urinary calcium-to-creatinine ratio<0.2 • Not taking maintenance calcitonin, bisphosphonates or drugs that may affect calcium or bone metabolism. • Not taking glucocorticoids for >14 days within the last 6 months. Concurrent Phosphate Binder Usage
Initial Dose: 2 or 4 mcg for TIW regimen and 1 or 2 mcg for QD regimen
Dose Increment: 2 mcg for TIW regimen and 1 mcg for QD regimen
Dose increases every 4 weeks, dose decreases every 2 weeks or sooner
Changes in proteinuria, measured by automated semiquantitative dipstick testing, were evaluated in 195 CKD Stage 3 and 4 patients. Among them, 43.6% (41/94) of paricalcitol patients and 48.5% (49/101) of placebo patients were diabetic.

PAI-1 = experiment: Western blot of PAI-1 in primary culture of human coronary artery smooth muscle cells; assay type: cell-based; details: 24 hr at 37° C.
renin mRNA expression = experiment: Northern blot analysis of renin mRNA expression in As4.1-hVDR cells; assay type: cell-based
Source text: (§1) Using an in vitro cell culture system, the activity of paricalcitol to suppress renin gene expression was examined using previously published techniques (1,25-Dihydroxyvitamin D3 is a negative endocrine regulator of the renin-angiotensin system, J. Clin. Invest., July 2002). […] This inhibitory effect is confirmed by renin promoter-luciferase reporter assays, which examine the activity of paricalcitol to suppress renin gene transcription.

24(OH)ase = experiment: effect of drugs on the expression of 24(OH)ase; assay type: cell-based; details: compared with calcitriol
Method: Two observations may be noted in these studies: (1) 100% inhibition of growth was never achieved even at 1 μM of any of the test compound. Confocal microscopy studies confirm that, although these drugs are potent in inducing the translocation of VDR from cytoplasm to nucleus, not all cells respond to VDRAs even after 2 h of exposure, which may explain the <100% inhibition.

renin gene promoter = experiment: renin promoter-luciferase reporter assay; assay type: cell-based; details: FIG. 2
Source text: as §1

renin gene expression = details: in vitro and in vivo studies, recently found; cited from earlier work

Compound	patients who had a decrease in proteinuria ([1]; patients on ACEI/ARB therapy with proteinuria at baseline (22/42), placebo 27% (11/41), p=0.025)	patients who experienced an increase in proteinuria, baseline to final visit ([1]; patients who could have an increase in proteinuria from baseline (18/76), placebo 29% (23/77), p=0.466)	patients who experienced a reduction in proteinuria, baseline to final visit ([1]; patients who had proteinuria at baseline (29/57), placebo 25% (15/61), p=0.004, 24 weeks treatment)	PAI-1 level (PAI-1)	potency in reducing the PAI-1 level (PAI-1)	renin mRNA expression (renin mRNA expression; FIG. 1)	renin-inhibiting activity compared with calcitriol (renin mRNA expression; FIGS. 1A and B)	potency on stimulating the expression of 24(OH)ase (24(OH)ase)	suppression of the activity of the renin gene promoter compared with calcitriol (renin gene promoter)	renin gene expression (renin gene expression)
C[C@H](/C=C/[C@H](C)C(C)(C)O)[C@H]1CC[C@H]2/C(=C/C=C3C[C@@H](O)C[C@H](O)C3)CCC[C@]12C [paricalcitol]	52%	24%	51%	able to decrease PAI-1 level	equally potent	dose-dependently inhibits renin mRNA expression	a bit more potent than calcitriol	less potent than calcitriol	at least as potent as calcitriol	
C=C1/C(=C\C=C2/CCC[C@]3(C)[C@@H]([C@H](C)CCCC(C)(C)O)CC[C@@H]23)C[C@@H](O)C[C@@H]1O [calcitriol]					equally potent					able to inhibit renin gene expression
